Columns and labels:
WT HTR2A = WT HTR2A (Homo sapiens, UniProt P28223); assay: Label-free DMR agonist response, HEK293T expressing WT HTR2A; type: cell-based; conditions: time to peak DMR
ΔPDZ HTR2A = ΔPDZ HTR2A (Homo sapiens, UniProt P28223); assay: Label-free DMR agonist response, HEK293T expressing ΔPDZ HTR2A; type: cell-based
Sequence of ΔPDZ HTR2A (P28223 1-467 limits assumed, stated change not applied): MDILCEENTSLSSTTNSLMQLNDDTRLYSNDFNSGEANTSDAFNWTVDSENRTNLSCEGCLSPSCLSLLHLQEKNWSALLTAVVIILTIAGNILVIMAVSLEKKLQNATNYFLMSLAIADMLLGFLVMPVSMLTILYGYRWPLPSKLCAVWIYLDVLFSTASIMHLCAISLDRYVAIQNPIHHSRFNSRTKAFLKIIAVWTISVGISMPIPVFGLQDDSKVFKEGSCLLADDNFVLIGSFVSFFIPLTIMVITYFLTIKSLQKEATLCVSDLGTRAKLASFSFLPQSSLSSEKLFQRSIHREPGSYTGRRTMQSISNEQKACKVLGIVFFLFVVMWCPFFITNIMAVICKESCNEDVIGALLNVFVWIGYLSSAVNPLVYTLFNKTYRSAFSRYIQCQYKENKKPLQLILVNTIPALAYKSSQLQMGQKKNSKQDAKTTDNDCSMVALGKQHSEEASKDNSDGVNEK

Sequence of WT HTR2A (P28223 whole entry): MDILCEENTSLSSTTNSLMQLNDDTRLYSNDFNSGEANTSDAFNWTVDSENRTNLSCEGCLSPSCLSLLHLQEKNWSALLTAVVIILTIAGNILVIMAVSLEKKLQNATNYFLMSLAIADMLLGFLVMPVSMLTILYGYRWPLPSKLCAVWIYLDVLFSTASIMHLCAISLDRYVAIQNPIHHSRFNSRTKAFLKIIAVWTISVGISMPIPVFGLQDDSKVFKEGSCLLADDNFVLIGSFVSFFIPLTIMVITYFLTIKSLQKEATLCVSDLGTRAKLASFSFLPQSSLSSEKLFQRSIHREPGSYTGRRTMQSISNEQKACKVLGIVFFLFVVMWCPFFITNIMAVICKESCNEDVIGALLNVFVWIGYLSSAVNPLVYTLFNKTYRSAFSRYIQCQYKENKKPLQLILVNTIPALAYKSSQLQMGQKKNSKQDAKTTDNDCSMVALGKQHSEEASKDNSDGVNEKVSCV

WT TTP (WT HTR2A): 14.10 s | ΔPDZ Max (DMR) (ΔPDZ HTR2A; maximal agonist DMR response): 106.10 ± 3.96 | ΔPDZ TTP (ΔPDZ HTR2A; time to peak DMR): 14.70 s
SMILES: Cl.NCCc1c[nH]c2ccc(O)cc12 [5-hydroxytryptamine, 5-hydroxytryptamine hydrochloride]

Reference: PMC4775402 (Pharmacological research, 2016)
